The term melting point denotes the temperature, or range, at which the solid turns liquid.

In one data set the test system is Amaranthus retroflexus. Nature of the data set: greenhouse experiment, pre-emergence treatment, herbicidal activity. The format is in vivo. As to conditions: application rate 1.0 kg/ha. An excerpt: (§1) The seeds of the test plants were sown separately for each species. For the pre-emergence treatment, directly after sowing the active compounds, which had been suspended or emulsified in water, were applied by means of finely distributing nozzles. The containers were irrigated gently to promote germination and growth and subsequently covered with transparent plastic hoods until the plant had rooted. This cover caused uniform germination of the test plants, unless this was adversely affected by the active compounds. The application rate for a pre-emergence treatment was 0.5 or 1.0 kg of a.s. (active substance)/ha. Depending on the species, the plants were kept at from 10 to 25° C. or from 20 to 35° C. The test period extended over 2 to 4 weeks. During this time, the plants were tended, and their response to the individual treatments was evaluated. Evaluation was carried out using a scale from 0 to 100. 100 means no emergence of the plants, or complete destruction of at least the above-ground parts, and 0 means no damage, or normal course of growth. The plants used in the greenhouse experiments were of the following species: [table]

The test system of data set [1] is Setaria faberii. The description is as above. As to conditions: application rate 1.0 kg/ha. It counts as in vivo.
Text: as §1

In a further data set the test system is Pharbitis purpurea. Nature of the data set: greenhouse experiment, post-emergence treatment, herbicidal activity. It counts as in vivo. Particulars: application rate 1.0 kg/ha. An excerpt:
(§2) The seeds of the test plants were sown separately for each species. For the post-emergence treatment, the test plants were first grown to a height of from 3 to 15 cm, depending on the plant habit, and only then treated with the active compounds which had been suspended or emulsified in water. The test plants were for this purpose either sown directly and grown in the same containers, or they were first grown separately as seedlings and transplanted into the test containers a few days prior to treatment. The application rate for the post-emergence treatment was 0.5 or 1.0 kg of a.s. (active substance)/ha. Depending on the species, the plants were kept at from 10 to 25° C. or from 20 to 35° C. The test period extended over 2 to 4 weeks. During this time, the plants were tended, and their response to the individual treatments was evaluated. Evaluation was carried out using a scale from 0 to 100. 100 means no emergence of the plants, or complete destruction of at least the above-ground parts, and 0 means no damage, or normal course of growth. The plants used in the greenhouse experiments were of the following species: [table]

The test system of data set [2] is Setaria faberii. The data set is described as above. The format is in vivo. Particulars: application rate 1.0 kg/ha.
Text: as §2

In another data set the test system is Digitaria sanguinalis. Nature of the data set: greenhouse experiment, pre-emergence treatment, herbicidal activity. As to conditions: application rate 1.0 kg/ha. The format is in vivo.
Text: as §1

`CCOC(=O)/C(C#N)=C(\N)C(CC)CC` [Example 2.1, Ethyl (2Z)-3-amino-2-cyano-4-ethyl-2-hexenoate] had a melting point of 85 to 87 °C. Also, the “effect on the harmful plant Amaranthus retroflexus, pre-emergence method” value with Amaranthus retroflexus is “very good”. Moreover, the “effect on the harmful plant Setaria faberii, pre-emergence method” value with Setaria faberii [1] is “very good”. The “post-emergence activity against the undesirable plant Pharbitis purpurea” value with Pharbitis purpurea is recorded as “very good”. In addition, the “post-emergence activity against the undesirable plant Setaria faberii” value with Setaria faberii [2] was “very good”. Consider `CCCOC(=O)/C(C#N)=C(\N)C(CC)CC` [Example 2.2, n-Propyl (2Z)-3-amino-2-cyano-4-ethyl-2-hexenoate], for which the melting point is 84 °C. In the data set with Digitaria sanguinalis, the “effect on the harmful plant Digitaria sanguinalis, pre-emergence method” value was “very good”. The “effect on the harmful plant Setaria faberii, pre-emergence method” value in the data set with Setaria faberii [1] was “very good”. For the same molecule, in the data set with Pharbitis purpurea, the “post-emergence activity against the undesirable plant Pharbitis purpurea” value is given as “very good”.

For the molecule `CCCOC(=O)/C(C#N)=C(\N)C(CC)CSC` (stereo not shown) [Example 2.3, n-Propyl (2Z)-3-amino-2-cyano-4-[(methylsulfanyl)methyl]-2-hexenoate], the melting point stood at 78 °C. Consider `CCC(CC)/C(N)=C(\C#N)C(=O)OC` [Example 2.5], for which the melting point was 65 °C. Consider `CCOC(=O)/C(C#N)=C(\N)C(C)CC` (stereo not shown) [Example 2.6], for which the melting point is 102 to 103 °C. As for `CCOC(=O)/C(C#N)=C(\N)C(C)(C)CC` [Example 2.8], the melting point was 65 to 67 °C. Same read-out and setting: with `CCOC(=O)/C(C#N)=C(\N)C(C)(C)Cl` [Example 2.9] the figure was 56 °C.

With `CCOC(=O)/C(C#N)=C(\N)C(C)(C)Br` [Example 2.10], the melting point came to 46 °C. The molecule `CCC(CC)/C(N)=C(\C#N)C(=O)OCCOC` [Example 2.22] yielded a melting point of 70 °C. The “effect on the harmful plant Setaria faberii, pre-emergence method” value in the data set on Setaria faberii [1] is on record as “very good”. Also, in the data set with Pharbitis purpurea, the “post-emergence activity against the undesirable plant Pharbitis purpurea” value is recorded as “very good”.

Take `CCOCCOC(=O)/C(C#N)=C(\N)C(CC)CC` [Example 2.23]: the melting point worked out at 70 °C.
